Source: patent US20220039395A1, “INSECT CONTROL AGENTS” (priority 2018, published 2022)
Entries after “also recorded” stand apart in the source; their conditions may differ. Ends that are not written are not given here. Alexa‑488‑C5‑maleimide = fluorescent Alexa 488 label coupled to Cys via C5-maleimide

Experiments:
aphid = assay: Topical application of peptides to aphid abdomen by microinjector, mortality; assay type: in vivo; settings: 9 nl of 1×10^−5 M peptide in Armid FMPC applied topically to abdomen
Description: For peptides 2315, 2320 and 2125, peptides were diluted individually in an Armid FMPC formulation (AkzoNobel Surface Chemistry, Stenungsund, Sweden) to concentration of 1×10^−5 M. Using a Nanoject II Auto-Nanoliter micro-injector, 9 nl of the peptide solution was applied topically to the abdomen of a pre-reproductive adult aphid, coating the cuticle in the solution. Aphids were returned to the host plant and allowed to recover for 24 h before use in experiments. Control aphids were topically applied with 9 nl of the Armid FMPC formulation and, once again, allowed to recover for 24 h on the host plant before use in experiments.
Peptides were applied topically to insect abdomen by microinjector and the insects returned to the plant. Mortality was assessed after 24 hours. Separate controls were performed for each experiment. A group of 9 or 10 insects was used for each time point, and all experiments were performed 3 times.

Aphids = assay: Feeding with peptides in artificial diet, mortality without other stress; assay type: in vivo, Myzus persicae; settings: for Dead (48 h) / Dead (72 h) / Dead (96 h) / Dead (120 h) / Dead (144 h): artificial diet supplemented with peptide; for effect on mortality in the absence of additional stressors: no additional stress conditions
Description: A standard artificial diet for M. persicae was produced as described in Van Emden (2009) and provided the basal diet to which neuropeptide analogues were added for screening purposes. Neuropeptide analogues were diluted individually in the artificial diet to a pre-determined recommended concentration as follows: 1895 (3.5×10^−5 M) and 2019 (2.0×10^−5 M).
Feeding apparatus were constructed using a set-up developed by Sadeghi et al (2009). For this, a piece of Parafilm was stretched over a Plexiglas ring (h=4 cm, Ø=3 cm) and 100 μl of the artificial diet containing the desired neuropeptide analogue was pipette onto the Parafilm membrane. A second piece of Parafilm, stretched to 4 times the original thickness, was stretched over the original layer, sandwiching the artificial diet between two layers of Parafilm. A strip of Parafilm was wrapped around the circumference of the Plexiglas ring, sealing in the diet. A plastic ring (h=1.2 cm, Ø=3.4 cm) was subsequently placed over the Parafilm layer, creating a walled chamber in which to house test aphids in contact with the Parafilm layer containing the artificial diet. Finally, a small Petri dish (h=1 cm, Ø=3.6 cm), modified for ventilation with net cloth, was placed on top of each feeding apparatus to prevent aphid escape.
To obtain aphids for use in experiments, reproducing anholocyclic adults were placed on individual excised leaves of Chinese cabbage at densities of 5 adults per leaf and allowed to reproduce for 24 h. The stem of each excised leaf was held within a 0.5 mL Eppendorf tube containing water via a punctured hole in the Eppendorf lid, and placed individually within a microcage (L=4 cm, Ø=9.5 cm). Following 24 h, adults were removed and resultant first instar nymphs (<1 day old and synchronised in age to within 24 h) retained. Nymphs were allowed to develop on the Chinese cabbage for 5 days. On day 5, (3rd instar) nymphs were transferred onto the artificial diet containing a neuropeptide analogue at densities of 1 per feeding chamber and monitored daily until death. Aphids were transferred to fresh artificial diet (containing neuropeptide analogue) every 5 days. Life history traits recorded include age at first reproduction, number of nymphs produced per 24 h period, and lifespan. From these parameters, lifetime fecundity and daily fecundity were calculated. Control groups were set up involving aphids reared on the host plant, an artificial diet without a neuropeptide analogue, and an artificial diet containing the native CAPA neuropeptide.
Aphids were reared on artificial diet, alone or supplemented with peptide 2129, 2315, 2316 or 2320. A control group (no test peptide) was reared on a host plant. No other stress conditions were applied.
For peptides 2315, 2316 and 2320, mortality was assessed at 48, 72, 96, 120 and 144 hours. A group of 9 or 10 insects was used for each time point, and all experiments were performed at least 4 times.

[1] = tested on: M. rosae gut, brain and ventral nerve cord; assay: Receptor mapping assay using fluorescently labelled neuropeptides; assay type: binding, Macrosiphum rosae; settings: labelled neuropeptide 10^−7 M; for site of binding in the gut: displaced by excess unlabelled peptide
Description: (§1) Aphids were cold anesthetized and the tissue of interest dissected out in a 1:1 solution of Schneider's insect medium and optimized saline.^7,42 The dissected tissue was mounted on a poly-L-lysine-covered 35 mm glass bottom dish containing 1:1 saline. Nuclei were stained via incubation in DAPI (1 μg ml^−1) and a baseline image taken to determine the level of autofluorescence and adjust exposure settings accordingly. All images were recorded on an inverted confocal microscope (Zeiss LSM 510 Meta). A labelled neuropeptide (10^−7 M) was subsequently added and the sample imaged. The concentration of 10^−7 M was chosen for labelled neuropeptides because it represents the minimal concentration required to produce a saturated receptor response, thereby optimizing the conditions for optical detection of ligand-receptor complexes.^7 Following imagining, unlabelled neuropeptide (10^−5 M) was added to the sample and a time-lapse experiment set up to determine if the unlabelled neuropeptide outcompeted the labelled neuropeptide, thus reaffirming the detection of the ligand-receptor complexes. Images were collected every 30 s for a duration of 20-30 m. All images were exported as JPEG files and subsequently viewed in FIJI and Microsoft Illustrator.

[2] = tested on: M. persicae gut, brain and ventral nerve cord; assay: as above; assay type: binding, Myzus persicae; settings: labelled neuropeptide 10^−7 M; for site of binding in the gut: displaced by excess unlabelled peptide
Description: as §1

Myzus persicae [3] = assay: Topical application by spraying, air brush; assay type: in vivo; settings: 750 μl, positive control 28.3 μM, counted 48 hours post spray
Description: (§2) Aphids were exposed to test peptides in the absence of additional external stress conditions.
(§3) Brassica rapa (Chinese cabbage; Wong Bok) were infested with 30 adult Myzus persicae aphids per plant. Aphids were left at least 2 hours to settle and begin feeding from the host plant.
Spraying took place inside an externally vented fume cupboard. […] To ensure spray tracking, all sprayed solutions had amaranth dye added, allowing the full surface of the plant to be evenly coated with the aerosolised compound.
The plants to be sprayed were placed inside a plastic disposal bag, inside the fume cupboard. This was used to control the area exposed to the aerosolised liquid, to avoid extensive spraying and cleaning inside the fume cupboard. The bag was further lined with absorbent paper towel to again help contain and control spray.
Each experiment had three controls:
i) no vehicle or peptide air spray only, negative control to assess effect of spraying on aphid ability to remain attached to the plant; ii) vehicle spray only (Tween 24 0.1%); and iii) Imidacloprid positive control (28.3 μM).
Imidacloprid was always applied last to prevent any possibility of stray pesticide being left inside the disposal bag and contaminating a test peptide applied plant.
Spray volumes for all solutions for this experiment 750 μl.
A clean air brush (ABEST AC06k30) was loaded with 750 μl of peptide solution diluted in […] 0.1% vehicle. For this experiment there were three test conditions: 1895 alone (1×10^−5M); 2129 alone (1×10^−5M); and a simultaneous co-application of 1895+2129 together (1×10^−5M of each peptide). During application, the air brush was held within the plastic bag and the compressor turned on. The air brush was then gently sprayed back and forth across the plant. […]
Post peptide application, each condition was placed into its own individual Bugdorm (Watkins and Doncaster, 44545), to prevent repulsed or displaced aphids moving from one condition to another. Numbers of alive and dead aphids on the plant were counted 48 hours post spray, and the presence of any fresh nymphs noted. […]

Myzus persicae [4] = assay: Topical application by spraying, Potter Spray Tower; assay type: in vivo; settings: 3000 μl, positive control 28.3 μM, counted 48 hours post spray
Description: as §2, §3
Spraying took place inside a designated spray room. To ensure spray tracking, all sprayed solutions had amaranth dye added.
Potter Spray Tower (Burkard Manufacturing) was ‘primed’ by spraying 1000 μl of liquid coating the inside of the tower. Two controls were used:
i) vehicle spray only (Croda ATPlus UEP 100 LQ-(CQ) 0.1% v/v); and ii) Imidacloprid positive control (28.3 μM).
Imidacloprid was always applied last and via a second, separate, Potter Tower, to prevent any possibility of stray pesticide being left inside the tower and contaminating a test peptide-applied plant.
Spray volumes for all solutions were 3000 μl. The 6.9 mm spray head was loaded with 3000 μl of a 1×10^−5M peptide solution diluted in ATPlus 0.1%. After spraying was completed the plant was allowed to rest on the spray platform for 30 seconds to allow settling of the sprayed chemical.
For this experiment there were three test conditions: 1895 alone (1×10^−5M); 2129 alone (1×10^−5M); and a simultaneous co-application of 1895+2129 together (1×10^−5M of each peptide).
Post peptide application, each condition was placed into its own individual Bugdorm (Watkins and Doncaster, 44545), to prevent repulsed or displaced aphids moving from one condition to another. Numbers of alive and dead aphids on the plant were counted 48 hours post spray, and the presence of any fresh nymphs noted. Plants were watered prior to spraying but not afterwards to eliminate the possibility of drowning any aphids present or washing off the sprayed liquid.
Post spraying, the spray head was filled with over 3000 μl of 70% ethanol and sprayed until empty. The spray head was carefully removed and rinsed with 70% ethanol as some amaranth dye was observed on the spray head. […]

| Molecule | Dead (24 h) (aphid) [%] | Dead (48 h) (Aphids) [%] | Dead (72 h) (Aphids) [%] | Dead (96 h) (Aphids) [%] | Dead (120 h) (Aphids) [%] | Dead (144 h) (Aphids) [%] | effect on mortality in the absence of additional stressors (Aphids) | effect on mortality in the absence of additional stressors (Aphids; listed as 2135) | staining of brain and ventral nerve cord (VNC) [1] | site of binding in the gut [1] | staining of brain and ventral nerve cord (VNC) [2] | site of binding in the gut [2] | % Lethality (Myzus persicae [3]) [%] | % Lethality (Myzus persicae [4]) [%] |
| --- | --- | --- | --- | --- | --- | --- | --- | --- | --- | --- | --- | --- | --- | --- |
| ASG[βhL]VAFPRV-NH2 [compound 2315] | 33.3 | 45.0 | 60.0 | 70.0 | 77.5 | 80.0 | increase mortality in the absence of additional stressors | increase mortality in the absence of additional stress conditions |  |  |  |  |  |  |
| ASG[βhL]V[βA]FPRV-NH2 [compound 2320] | 33.3 | 70 | 80 | 80 | 80 | 85 | increase mortality in the absence of additional stress conditions; also recorded: increase mortality in the absence of additional stressors |  |  |  |  |  |  |  |
| Alexa-488-C5-maleimide-CNSVVLGKKQRFHSWGamide (C(Alexa‑488‑C5‑maleimide)NSVVLGKKQRFHSWG-NH2) [kinin-F] |  |  |  |  |  |  |  |  | no specific staining | bind to the circular and longitudinal muscles of the aphid gut | staining apparent in a bilateral symmetrical ‘ladder’ of neuronal clusters | bind to the circular and longitudinal muscles of the aphid gut |  |  |
| TMR-C5-maleimide-CGANMGLYAFPRVamide (TMR-C5-maleimide on Cys; C-terminal amide; labelled CAPA-1) [CAPA-1-F] |  |  |  |  |  |  |  |  | no sites of receptor binding in either the brain or the VNC | bind to the circular and longitudinal muscles of the aphid gut | no sites of receptor binding in either the brain or the VNC | bind to the circular and longitudinal muscles of the aphid gut |  |  |
| O=[N+]([O-])NC1=NCCN1Cc1ccc(Cl)nc1 [Imadocloprid, Imidacloprid, reference compound] |  |  |  |  |  |  |  |  |  |  |  |  | 100 | 93 |
